Experimental data published in patent US10500169B2, “Supression of IgE production by compounds derived from traditional chinese medicine” (Sean N. Parker Foundation, priority 2014, dated 2019).

Key:
human PBMCs [1] = test: IgE production by PBMCs from food allergic patients stimulated with rIL-4 and anti-CD40 mAb, ELISA; type: cell-based; settings: 10 days
Method: PBMCs were isolated by Ficoll Hypaque (Pharmacia, Piscataway, N.J.) using density gradient centrifugation at 1800 RPM for 30 minutes, and washed 3 times in PBS. To determine the optimal stimulation of IgE production by PBMCs, PBMCs at 1.5×10^6 cells/mL were suspended in complete RPMI medium (200 μM L-glutamine, 1% penicillin/streptomycin, 25 mM HEPES, 10% heat inactivated fetal calf serum), and co-stimulated with human recombinant IL-4 (rIL-4) at 0.01 and 0.1 μg/mL (R&D Systems, Minneapolis, Minn., USA) and anti-CD40 monoclonal antibody (mAb) at […] (R&D) for 10 and 14 days. At the end of incubation, the supernatants were collected and IgE levels were analyzed using ELISA kit (Mabtech Inc, OH). Since PBMCs stimulated with 100 ng/mL rIL-4 and 1 μg/mL anti-CD40 mAb produced the highest level of IgE, we used this culture condition for the subsequent studies. PBMCs were stimulated with 100 ng/mL rIL-4 and 1 μg/mL anti-CD40 mAb and cultured in the presence or absence of 20 μg/mL of the two purified compounds for 10 days for screening active compounds, and at different concentrations (0.15, 0.31, 0.62, 1.25, 2.5, 5, 10 μg/mL) to examine dose responses for the effective compounds. IgE level was evaluated using ELISA. The percentage of IgE inhibition was calculated as follows: […]. In some cases if enough PBMCs were obtained, aliquots of PBMCs prepared from the same individuals were used for different experiments.

human PBMCs [2] = test: Cell viability of human PBMC, trypan blue exclusion; type: cell-based; settings: any dose tested
Method: Cell viability was evaluated using a trypan blue exclusion as previously described. Briefly, a 10 μl of cells suspension from each culture was mixed with equal volume of trypan blue dye. The mixture was loaded into a hemocytometer and cells were counted under a microscope. The percentage of viable cells was calculated as follows: Viable cells (%)=(total number of viable cells)/(total number of cells)×100.

εGLT = test: RT-PCR of epsilon germline transcripts in PBMCs; type: cell-based, human; settings: 10 μg/mL, 4 days, vs untreated cultures
Method: (§1) Quantitative real time PCR was used to detect the epsilon germline transcription. Human PBMC cells (1.5×10^6 cells/mL) were co-incubated with DMF-C1 compound (10 μg/mL) at 37° C. under 5% CO2 for 4 days. Cells were then harvested and total RNA was isolated using Trizol reagent (Gibco BRL, Rockville, Md.) following the manufacturer's instructions. The RNA concentrations were then quantified by triplicate optical density (OD) readings (Bio-Rad SmartSpect 3000; Bio-Rad, Hercules, Calif.). The reverse transcription was performed to get the cDNA using ImProm-II™ Reverse Transcriptase (Promega Corporation, Madison, Wis.) as described by the manufacturer's instructions. The RT-PCR amplification was performed using Maxima™ SYBR Green qPCR Master Mix (2×) kit (Fisher Scientific, Pittsburgh, Pa.) with epsilon germline primers or GAPDH primers. The primer sequences were listed as εGLT forward: 5′-[…]-3′; εGLT reverse: 5′-[…]-3′; GAPDH-forward: 5′-[…]-3′; GAPDH-reverse: 5′-[…]-3′; STAT3-forward: 5′-[…]-3′; STAT3-reverse: 5′-[…]-3′; T-bet-forward: 5′-[…]-3′; T-bet-reverse: 5′-[…]-3′; IFN-γ-forward: 5′-[…]-3′; IFN-γ-reverse: 5′-[…]-3′; IL-10-forward: 5′-[…]-3′; IL-10-reverse: 5′-[…]-3′. IL-5-forward. 5′-[…] TGCA-3′; IL-5-reverse: 5′-[…]-3′. All primers were synthesized by Sigma-Aldrich Corporation (St. Louis, Mo.).

IFN-γ = test: RT-PCR gene expression in stimulated PBMCs: IFN-γ; type: cell-based, human; settings: 10 μg/mL
Method: as §1

GATA-3 = test: RT-PCR gene expression in stimulated PBMCs: GATA-3; type: cell-based, human; settings: 10 μg/mL
Method: as §1

IL-5 = test: RT-PCR gene expression in stimulated PBMCs: IL-5; type: cell-based, human; settings: 10 μg/mL
Method: as §1

CACO-2 cells = test: Berberine uptake by Caco-2 cells, LC-MS; type: in vitro ADME; settings: 50 μg/mL berberine, 1 hour
Method: Experiments were performed on 24 well plates for berberine uptake assay. CACO-2 cells were seeded in each well at the concentration of 1×10^5 cells/well. Cells were then allowed to grow to confluence and differentiation for 2 weeks in culture medium (DMEM+10% FBS, high glucose and sodium pyruvate and supplemented with 1% Essential Amino Acids). On the experiment day, cells were washed three times with pre-warmed HBSS and incubated with 1 ml warm HBSS for 30 minutes.
After conditioning with HBSS, cells were incubated at 37° C. with 50 μg/mL berberine with or without 250 μg/mL of nine different herbal medicines, fruits of Prunus mume (P. mume), skin of the fruits of Zanthoxylum schinifolium (Z. schinifolium), roots of Angelica sinensis (A. sinensis), rhizome of Zingiber officinalis (Z. officinalis), twigs of Cinnamomum cassia (C. cassia), bark of Phellodendron chinensis (P. chinensis), rhizome of Coptis chinensis (C. chinensis), roots of Panax ginseng (P. ginseng) and fruiting body of Ganoderma lucidum (G. lucidum). Control wells received 0, 50, 100 and 200 μg of berberine alone.
After 1 hour, cells were washed 3 times with ice-cold HBSS and scraped in 500 μl of ice cold HBSS and centrifuged. […] 75 μL of each sample was analyzed for its berberine concentration by using LC-MS. […]
All samples were analyzed using waters LC-MS system (Waters corp. MA) for berberine detection. […]

In the case of `COc1ccc2cc3[n+](cc2c1OC)CCc1cc2c(cc1-3)OCO2` [berberine], the “inhibition of IgE production by human PBMCs” value (human PBMCs [1]; 20 μg/mL, rIL-4 100 ng/mL + anti-CD40 mAb 1 μg/mL) is reported as “completely inhibited”, the inhibition at 0.62 µg/mL (human PBMCs [1]; Homo sapiens, PBMC, 240 h, 0.62 μg/mL, read-out: inhibition percentage of IgE production by PBMCs) is reported as 80.7 ± 9.24% and the IC50 (human PBMCs [1]; Homo sapiens, PBMC, 240 h, rIL-4 + anti-CD40 mAb, read-out: IC50 of inhibition of IgE production by PBMCs) is reported as 0.2 µg/mL. The “cell viability of human PBMC” value (human PBMCs [2]) was “not compromised”, the “relative mRNA expression of εGLT” value (εGLT) was “significantly inhibited” and the “mRNA level of IFN-γ” value (IFN-γ) was “trend of increase”. The GATA-3 expression (GATA-3) was “No significant change”, the “mRNA level of IL-5” value (IL-5) was “significantly decreased” and the “Concentration of berberine in Cacao-2 cells, berberine standard alone” value (CACO-2 cells) was 2.95 µg/mL.
